Experimental data published in patent publication US20100179225A1, “POI Prevention” (CYTOKINE PHARMASCIENCES, INC., priority 2008, published 2010).

Experiments:
mice [1] = test: In vivo gastrointestinal transit (FITC-dextran geometric center) after IM, mouse
Procedure: Gastrointestinal transit was measured 23.5 hours postoperatively by evaluating the intestinal location of a fluorochrome labeled dextran (FITC—dextran, 70.000 MW, Molecular Probes, Netherlands) (n=10 each). Thereto, 22 hours after the bowel manipulation, animals were lightly anesthetized and given FITC-dextran (200 μl of 6.25 mg/ml stock solution) via a gastric tube into the stomach. Mice were killed 90 minutes after administration, the entire gastrointestinal tract was divided into 15 segments, opened and FITC-dextran was washed out by PBS. Fluorescence of segment washes was read at 494 nm/521 nm wavelength in fluorescence reader (Tecan, Crailsheim, Germany). The data were expressed as the percentage of activity per segment. Gastrointestinal transit was calculated as the geometric center (GC) of distribution of fluorescence marker using this formula:
GC=Σ(% of total fluorescent signal per segment*segment number)/100.

neutrophils in ME [2] = test: Neutrophil infiltration into mouse ME (myeloperoxidase staining of whole mounts) after IM; format: in vivo, mice; conditions: for number of neutrophils in ME: 24 hours after IM
Excerpt: The small bowel of the animals was subjected to a standardized, surgical manipulation (IM) as described previously (Kalff J C, Schraut W H, Simmons R L et al. Surgical manipulation of the gut elicits an intestinal muscularis inflammatory response resulting in postsurgical ileus. Ann Surg 1998; 228:652-663; Wehner S, Schwarz N T, Hundsdoerfer R et al. Induction of IL-6 within the rodent intestinal muscularis after intestinal surgical stress. Surgery 2005; 137:436-446). In brief, after anesthesia a midline abdominal incision was made into the peritoneal cavity. The entire small bowel was eventuated and manipulated with standardized moderate intensity using two moist cotton applicators as described previously. After IM, the laparotomy was closed by one layer of continuous suture, except when probe sampling was conducted within 20 minutes after surgery. These animals were held in anesthesia and the abdomen was closed by a clamp and protected with sterile gauze. All other animals recovered rapidly from the bowel manipulation procedure. Control animals exclusively underwent laparotomy without eventration and IM (sham operation).
(§1) Animals within examples referring to FIGS. 2-9 were treated 90 minutes before operation with 0 mg/kg (placebo group), or 5 mg/kg bodyweight CNI-1493. In further experiments in rats or mice 0.1, 1.0 or 10 mg/kg CPSI-2364 were administered 90 minutes before surgical procedure via oral route. Oral (p.o.) administration was performed via a gastric tube. CNI-1493 and CPSI-2364 were dissolved in 2.5% mannitol. Placebo and CNI-1493 or CPSI-2364 groups were subdivided in two further groups. One was sham operated (laparotomy without IM) while the other underwent laparotomy followed by IM.
(§2) Specimens for histochemical analysis were prepared 24 h after operation and performed on whole mounts of the distal jejunum, as described before in detail (n=5-7 each group) 9. In brief, jejunal segments were opened, immersed in chilled Krebs-Ringer buffer (KRB) and fixed in 100% ethanol for 10 minutes. After washing with KRB, mucosa and submucosa were stripped off and ME whole mounts were used for detection of myeloperoxidase (MPO) positive cells (neutrophils). Thereto, freshly prepared whole mounts were stained with Hanker-Yates reagent as described previously (Wehner S, Schwarz N T, Hundsdoerfer R et al. Induction of IL-6 within the rodent intestinal muscularis after intestinal surgical stress. Surgery 2005; 137:436-446). MPO+-cells were counted under a microscope (TE-2000, Nikon, Duesseldorf, Germany) in 5 randomly chosen areas in each specimen.

[3] = test system: jejunal circular smooth muscle; test: In vitro jejunal circular smooth muscle contractility (bethanechol) after IM, mouse; format: in vivo, mice
Procedure: Jejunal smooth muscle activity was measured as previously described (Kalff J C, Schraut W H, Simmons R L et al. Surgical manipulation of the gut elicits an intestinal muscularis inflammatory response resulting in postsurgical ileus. Ann Surg 1998; 228:652-663). Briefly, after preparation, mucosa-free circular ME strips were equilibrated in KRB perfused organ chambers at 37° C. for 1 hour. One end of each strip was tied to a fixed post and the other attached to an isometric force transducer (ADI, Heidelberg, Germany) connected to the bridge amplifier and powerlab system (ADI). Dose-response curves of muscle contraction were generated by exposing the muscle strips to increasing concentrations of the muscarinic agonist bethanechol (0.1-300 μmol/L) for 10 minutes, followed by a wash-period (KRB) of 10 minutes. The contractile response was analyzed with the ADI Chart© software and the contractions were calculated as grams per square millimeter per second by conversion of the weight and length of the strip to square millimeters of tissue.

mice [4] = test: In vivo colonic transit (glass ball excretion time) after IM, mouse
Procedure: Colonic transit measurement was performed 24 h hours after operation by inserting a 2 mm glass ball with a metal rod 3 cm into the colon. Before insertion colonic patency was ensured by exclusively inserting the rod 3 cm into the colon. Mice were weakly anesthetized with isofluran for the whole procedure and wake up within 40 seconds after glass ball insertion. Colonic transit time was calculated as the period between insertion and excretion of the ball.

[5] = test system: nitric oxide (NO) production in ME; test: Nitric oxide release from cultured mouse ME (Griess reaction) after IM; format: in vivo, mice
Procedure: […] Control animals received CNI-1493 (5 mg/kg) intravenously or CPSI-2364 orally (1 mg/kg or 0.1 mg/kg), but were not operated.
After preoperative i.v. or oral drug or placebo administration animals underwent IM. Control animals received CNI-1493 or placebo i.v. or orally but were not operated.
Total ME from small intestine was isolated 24 h after operation as described above and then cut into small pieces and washed for 30 minutes in PBS containing a penicillin/streptomycin (200U/200 μg) mixture. Aliquots of ˜50 mg were incubated in 1 mL of DMEM at 37° C. and 5% CO2 for further 24 hours and tissue culture supernatants were frozen in liquid nitrogen. The muscle tissue was blotted dry, and the exact weight was measured. To quantify the generation of NO from intestinal smooth muscle preparations, nitrite production was measured by the Griess reaction as described previously (Kalff J C, Schraut W H, Billiar T R et al. Role of inducible nitric oxide synthase in postoperative intestinal smooth muscle dysfunction in rodents. Gastroenterology 2000; 118:316-327). In brief, supernatant from the tissue culture was mixed with an equal volume of Griess reagent (0.1% N-(1-napthyl)ethyl-enediamine dihydrochloride and 1% sulfanilamide in 6% phosphoric acid; 1:1) and incubated for 10 minutes. The absorbance at 550 nm was measured with a microplate reader and compared with standard dilutions of sodium nitrite. Total nitrite produced was normalized to 1 g of muscle tissue.

neutrophils in ME [6] = test: Neutrophil infiltration into rat ME (myeloperoxidase staining) after IM; format: in vivo; conditions: rats, 24 hours after IM (FIG. 10)
Procedure: as §1
as §2, with “Thereto, freshly prepared whole mounts were stained with Hanker-Yates reagent as described previously (Wehner S, Schwarz N T, Hundsdoerfer R et al. Induction of IL-6 within the rodent intestinal muscularis after intestinal surgical stress. Surgery 2005; 137:436-446).” left out
Example 3 was repeated in rats and mice, i.e. the infiltration of neutrophils within the ME after preoperative p.o. application of the drug was analyzed (FIGS. 10 and 11). […]

## C/C(=N\N=C(N)N)c1cc(NC(=O)CCCCCCCCC(=O)Nc2cc(/C(C)=N/N=C(N)N)cc(/C(C)=N/N=C(N)N)c2)cc(/C(C)=N/N=C(N)N)c1.Cl.Cl.Cl.Cl [CNI-1493]
Mice [1]; 5 mg/kg i.p. preoperative, IM
  gastrointestinal transit, geometric center (GC): 10.96±1.71
Mice [1]; 5 mg/kg i.p., sham operated
  gastrointestinal transit, geometric center (GC): 9.81±0.92
Mice [1]; 5 mg/kg i.v. 90 minutes before operation, IM
  gastrointestinal transit, geometric center (GC): 8.97±0.60
Mice [1]; 5 mg/kg i.v., sham operated
  gastrointestinal transit, geometric center (GC): 11.98±0.73
Mice [1]; given immediately before laparotomy and IM (results not shown)
  gastrointestinal transit, geometric center (GC): 5.48±2.01
Neutrophils in ME [2]; 5 mg/kg i.p. preoperative
  number of neutrophils in ME: 36.1±10.7
Neutrophils in ME [2]; 5 mg/kg i.v. preoperative
  number of neutrophils in ME: 52.1±15.5
Neutrophils in ME [2]; intravenous treatment, after IM
  neutrophil infiltration, reduction: reduced by only one third
[3]; 5 mg/kg i.v. preoperative, 24 h after IM
  suppression of bethanechol stimulated muscle contractility after IM: completely abrogated
Mice [4]; 5 mg/kg intravenously preoperative, 24 hours after IM
  colonic transit time: 166 ± 87 s
Mice [4]; unoperated controls of the CNI-1493 group (S-CTL, FIG. 8E)
  colonic transit time: 118 ± 68 s
[5]; 5 mg/kg i.v. preoperative, ME taken 24 h after IM, cultured 24 h
  NO production (nitrite release) from ME: 333 ± 198 µM
[5]; 5 mg/kg i.v., non-operated animals (basal)
  NO production (nitrite release) from ME: 45.5 ± 52.2 µM

## C/C(=N\N=C(N)N)c1cc(NC(=O)CCCCCCCCC(=O)Nc2cc(/C(C)=N/N=C(N)N)cc(/C(C)=N/N=C(N)N)c2)cc(/C(C)=N/N=C(N)N)c1.CS(=O)(=O)O.CS(=O)(=O)O.CS(=O)(=O)O.CS(=O)(=O)O [CPSI-2364]
Mice [1]; mice, 0.1, 1 or 10 mg/kg orally 90 minutes, 6 hours or 16 h before operation, IM (FIG. 25)
  geometric centers of FITC dextran distribution vs Sham+Placebo: None of the CPSI-2364 treated groups differed significantly from the Sham+Placebo group
Mice [1]; mice, p.o. preoperative, IM (FIG. 14)
  gastrointestinal transit (GIT): normalized GIT
Neutrophils in ME [2]; mice, p.o. preoperative, 24 hours after IM (FIG. 11)
  neutrophils in ME compared to the placebo IM group: significant reduction of neutrophils
Neutrophils in ME [6]; 0.1 mg/kg bodyweight p.o.
  neutrophils in ME compared to the placebo IM group: led to the described results
Neutrophils in ME [6]; p.o. preoperative
  neutrophils in ME compared to the placebo IM group: significant reduction of neutrophils
[3]; mice, p.o. preoperative (FIG. 13)
  suppression of bethanechol stimulated muscle contractility after IM: strongly abrogated
Mice [4]; mice, 0.1, 1 or 10 mg/kg orally 90 minutes, 6 hours or 16 h before operation, IM (FIG. 26)
  colonic transit, excretion time of the ball vs Sham+Placebo: None of the CPSI-2364 treated group differed significantly from Sham+Placebo group
[5]; mice, 10 mg/kg orally 90 minutes or intravenously 60 minutes before operation, IM (FIG. 27)
  nitric oxide and its metabolites in muscularis culture supernatant vs Sham+Placebo: None of the CPSI-2364 treated group differed significantly different from Sham+Placebo group
